# From US11879021B2, “Cyclic peptides and uses thereof” (UNIVERSITÉ DE MONTRÉAL, priority 2016, dated 2024)
# Test system: R-FSL-1 (TLR2 agonist)-induced NO production in RAW macrophage cell line
# Experiment: Nitric oxide (NO) production induced by TLR2 agonist R-FSL-1 in RAW macrophage cell line
# Assay type: cell-based, murine
# Conditions: RAW macrophages
# Procedure: The murine RAW1 macrophage cell line was obtained from American Type Cell Collection (ATCC #TIB-71), seeded at 1.5×10^5 cells/well in Dulbecco's Modified Eagle's medium (DMEM) containing 100 U/mL of penicillin (Pen) and 100 μg/mL of streptomycin (Strep) on a 48-well plate (Costar® #3548), and incubated at 37° C. with 5% CO2. After 2 h, the cell culture medium of adhered cells was removed and replaced by DMEM-Pen/Strep medium containing 0.2% of bovine serum albumin (BSA), and supplemented with the cyclic peptides at a concentration of 10^−6 or 10^−7 M. MPE-001 (DBG178, His-D-Trp-Ala-AzaTyr-D-Phe-Lys-NH2) and [azaLys^6]-GHRP-6 (His-D-Trp-Ala-Trp-D-Phe-azaLys-NH2, negative control) at 10^−6 M were used as positive and negative controls, respectively. After 1 h pre-incubation, the cells were stimulated overnight using the TLR2 ligand fibroblast-stimulating lipopeptide (R-FSL-1) (Invivogen® #L7022) at a concentration of 300 ng/mL. Supernatants were then collected for nitrite production analysis by fluorescence using 2,3-diaminonaphthalene (DAN). Briefly, 25 μL of sample was incubated with 0.5 μg of DAN in a 100 μL final volume of phosphate buffer (50 mM, pH 7.5) at room temperature in the dark. After 15 min, the reaction was stopped with 20 μL of NaOH (2.8N) and the plate was read using a fluorescence plate reader (TECAN® Safire, λexc 365 nm and λem 430 nm).
smiles,measurement,setting,value
C=CCN1CC#CCN(NC(=O)[C@H](C)N)C(=O)N[C@H](Cc2c[nH]c3ccccc23)C(=O)N[C@@H](C)C(=O)N[C@@H](Cc2c[nH]c3ccccc23)C(=O)N[C@H](Cc2ccccc2)C(=O)N[C@H](C(N)=O)CCCC1 [MPE-298],suppression of NO production compared with positive control MPE-001 at the same concentration,"10^−7 M, FIG. 4F",more important
same,suppression of R-FSL-1-mediated NO production at 10^−7 M,"10^−7 M, further analyses, FIG. 4F",significant suppression
same,suppression of R-FSL-1-mediated NO production,"at the concentration tested (10^−6 or 10^−7 M), FIGS. 4A to 4F",significant suppression
